Source: patent US12544395B2, “Combination compositions comprising a beta-lactamase inhibitor and uses thereof” (priority 2018, dated 2026)

Key:
Format in all cases: cell-based
K. pneumoniae 329633 = test: Broth microdilution MIC (strain enzymes: SHV-5, TEM-1)
K. pneumoniae KP 4 = test: Broth microdilution MIC (strain enzymes: SHV-2a, SHV-5, TEM-1)
E. coli SI-PBLII = test: Broth microdilution MIC (strain enzymes: CTX-M2, TEM-1)
K. pneumoniae SI-KP NO30 = test: Broth microdilution MIC (strain enzymes: TEM-26b, SHV-60, SHV-26)
K. oxytoca 496 #2 = test: Broth microdilution MIC (strain enzymes: SHV-105, TEM-1)
K. pneumoniae 170375 = test: Broth microdilution MIC (strain enzymes: SHV-12, CTX-M15 and TEM-1)
K. pneumoniae KI (KCl) = test: Broth microdilution MIC (strain enzymes: TEM-10)
K. pneumoniae 3151 = test: Broth microdilution MIC (strain enzymes: SHV-12, TEM-1)
E. coli 1924 = test: Broth microdilution MIC (strain enzymes: TEM-12)
K. pneumoniae 11/23 LF#2 = test: microbe, parasite or virus in culture
E. coli ESBL 2 = test: Broth microdilution MIC (strain enzymes: TEM-1)

## CCC(=O)N[C@H]1Cc2cccc(C(=O)O)c2OB1O [Compound 2, (R)-2-hydroxy-3-propionamido-3,4-dihydro-2H-benzo[e][1,2]oxaborinine-8-carboxylic acid]
K. pneumoniae 329633; with inhibitor at 1 μg/mL
  MIC of cefalexin (LEX): 0.25 µg/mL
  MIC of cefdinir (CDR): 0.25 µg/mL
  MIC of cefixime (CFM): 1 µg/mL
  MIC of ceftibuten (CTB): 0.06 µg/mL
K. pneumoniae 329633; with inhibitor at 2 μg/mL
  MIC of cefalexin (LEX): 0.25 µg/mL
  MIC of cefdinir (CDR): 0.25 µg/mL
  MIC of cefixime (CFM): 0.5 µg/mL
  MIC of ceftibuten (CTB): 0.06 µg/mL
K. pneumoniae 329633; with inhibitor at 4 μg/mL
  MIC of cefalexin (LEX): 1 µg/mL
  MIC of cefdinir (CDR): 1 µg/mL
  MIC of cefixime (CFM): 0.5 µg/mL
  MIC of ceftibuten (CTB): 0.06 µg/mL
K. pneumoniae KP 4; with inhibitor at 1 μg/mL
  MIC of cefalexin (LEX): 0.5 µg/mL
  MIC of cefdinir (CDR): 0.5 µg/mL
  MIC of cefixime (CFM): 2 µg/mL
  MIC of ceftibuten (CTB): 0.25 µg/mL
K. pneumoniae KP 4; with inhibitor at 2 μg/mL
  MIC of cefalexin (LEX): 0.5 µg/mL
  MIC of cefdinir (CDR): 0.5 µg/mL
  MIC of cefixime (CFM): 0.5 µg/mL
  MIC of ceftibuten (CTB): 0.125 µg/mL
K. pneumoniae KP 4; with inhibitor at 4 μg/mL
  MIC of cefalexin (LEX): 0.125 µg/mL
  MIC of cefdinir (CDR): 0.125 µg/mL
  MIC of cefixime (CFM): 0.25 µg/mL
  MIC of ceftibuten (CTB): 0.125 µg/mL
E. coli SI-PBLII; with inhibitor at 1 μg/mL
  MIC of cefalexin (LEX): 0.25 µg/mL
  MIC of cefdinir (CDR): 0.25 µg/mL
  MIC of cefixime (CFM): 0.25 µg/mL
  MIC of ceftibuten (CTB): 0.125 µg/mL
E. coli SI-PBLII; with inhibitor at 2 μg/mL
  MIC of cefalexin (LEX): 0.25 µg/mL
  MIC of cefdinir (CDR): 0.25 µg/mL
  MIC of cefixime (CFM): 0.25 µg/mL
  MIC of ceftibuten (CTB): 0.125 µg/mL
E. coli SI-PBLII; with inhibitor at 4 μg/mL
  MIC of cefalexin (LEX): 0.25 µg/mL
  MIC of cefdinir (CDR): 0.25 µg/mL
  MIC of cefixime (CFM): 0.25 µg/mL
  MIC of ceftibuten (CTB): 0.125 µg/mL
K. pneumoniae SI-KP NO30; with inhibitor at 1 μg/mL
  MIC of cefalexin (LEX): 0.125 µg/mL
  MIC of cefdinir (CDR): 0.125 µg/mL
  MIC of cefixime (CFM): 0.5 µg/mL
  MIC of ceftibuten (CTB): 0.06 µg/mL
K. pneumoniae SI-KP NO30; with inhibitor at 2 μg/mL
  MIC of cefalexin (LEX): 0.25 µg/mL
  MIC of cefdinir (CDR): 0.25 µg/mL
  MIC of cefixime (CFM): 0.25 µg/mL
  MIC of ceftibuten (CTB): 0.06 µg/mL
K. pneumoniae SI-KP NO30; with inhibitor at 4 μg/mL
  MIC of cefalexin (LEX): 0.125 µg/mL
  MIC of cefdinir (CDR): 0.125 µg/mL
  MIC of cefixime (CFM): 0.25 µg/mL
  MIC of ceftibuten (CTB): 0.06 µg/mL
K. oxytoca 496 #2; with inhibitor at 1 μg/mL
  MIC of cefalexin (LEX): 0.25 µg/mL
  MIC of cefdinir (CDR): 0.25 µg/mL
  MIC of cefixime (CFM): 0.25 µg/mL
  MIC of ceftibuten (CTB): 0.125 µg/mL
K. oxytoca 496 #2; with inhibitor at 2 μg/mL
  MIC of cefalexin (LEX): 0.25 µg/mL
  MIC of cefdinir (CDR): 0.25 µg/mL
  MIC of cefixime (CFM): 0.125 µg/mL
  MIC of ceftibuten (CTB): 0.125 µg/mL
K. oxytoca 496 #2; with inhibitor at 4 μg/mL
  MIC of cefalexin (LEX): 0.06 µg/mL
  MIC of cefdinir (CDR): 0.06 µg/mL
  MIC of cefixime (CFM): 0.06 µg/mL
  MIC of ceftibuten (CTB): 0.125 µg/mL
K. pneumoniae 170375; with inhibitor at 1 μg/mL
  MIC of cefalexin (LEX): 8 µg/mL
  MIC of cefdinir (CDR): 8 µg/mL
  MIC of cefixime (CFM): 1 µg/mL
  MIC of ceftibuten (CTB): 0.06 µg/mL
K. pneumoniae 170375; with inhibitor at 2 μg/mL
  MIC of cefalexin (LEX): 4 µg/mL
  MIC of cefdinir (CDR): 4 µg/mL
  MIC of cefixime (CFM): 1 µg/mL
  MIC of ceftibuten (CTB): 0.06 µg/mL
K. pneumoniae 170375; with inhibitor at 4 μg/mL
  MIC of cefalexin (LEX): 2 µg/mL
  MIC of cefdinir (CDR): 2 µg/mL
  MIC of cefixime (CFM): 1 µg/mL
  MIC of ceftibuten (CTB): 0.06 µg/mL
K. pneumoniae KI (KCl); with inhibitor at 1 μg/mL
  MIC of cefalexin (LEX): 0.125 µg/mL
  MIC of cefdinir (CDR): 0.125 µg/mL
  MIC of cefixime (CFM): 1 µg/mL
  MIC of ceftibuten (CTB): 0.125 µg/mL
K. pneumoniae KI (KCl); with inhibitor at 2 μg/mL
  MIC of cefalexin (LEX): 0.125 µg/mL
  MIC of cefdinir (CDR): 0.125 µg/mL
  MIC of cefixime (CFM): 1 µg/mL
  MIC of ceftibuten (CTB): 0.06 µg/mL
K. pneumoniae KI (KCl); with inhibitor at 4 μg/mL
  MIC of cefalexin (LEX): 0.125 µg/mL
  MIC of cefdinir (CDR): 0.125 µg/mL
  MIC of cefixime (CFM): 0.25 µg/mL
  MIC of ceftibuten (CTB): 0.125 µg/mL
K. pneumoniae 3151; with inhibitor at 1 μg/mL
  MIC of cefalexin (LEX): 2 µg/mL
  MIC of cefdinir (CDR): 2 µg/mL
  MIC of cefixime (CFM): 16 µg/mL
  MIC of ceftibuten (CTB): 1 µg/mL
K. pneumoniae 3151; with inhibitor at 2 μg/mL
  MIC of cefalexin (LEX): 1 µg/mL
  MIC of cefdinir (CDR): 1 µg/mL
  MIC of cefixime (CFM): 8 µg/mL
  MIC of ceftibuten (CTB): 0.25 µg/mL
K. pneumoniae 3151; with inhibitor at 4 μg/mL
  MIC of cefalexin (LEX): 0.5 µg/mL
  MIC of cefdinir (CDR): 0.5 µg/mL
  MIC of cefixime (CFM): 2 µg/mL
  MIC of ceftibuten (CTB): 0.25 µg/mL
E. coli 1924; with inhibitor at 1 μg/mL
  MIC of cefalexin (LEX): 0.5 µg/mL
  MIC of cefdinir (CDR): 0.5 µg/mL
  MIC of cefixime (CFM): 0.5 µg/mL
  MIC of ceftibuten (CTB): 0.125 µg/mL
E. coli 1924; with inhibitor at 2 μg/mL
  MIC of cefalexin (LEX): 0.25 µg/mL
  MIC of cefdinir (CDR): 0.25 µg/mL
  MIC of cefixime (CFM): 0.5 µg/mL
  MIC of ceftibuten (CTB): 0.25 µg/mL
E. coli 1924; with inhibitor at 4 μg/mL
  MIC of cefalexin (LEX): 0.25 µg/mL
  MIC of cefdinir (CDR): 0.25 µg/mL
  MIC of cefixime (CFM): 0.25 µg/mL
  MIC of ceftibuten (CTB): 0.125 µg/mL
K. pneumoniae 11/23 LF#2; with inhibitor at 1 μg/mL
  MIC of cefalexin (LEX): 0.25 µg/mL
  MIC of cefdinir (CDR): 0.25 µg/mL
  MIC of cefixime (CFM): 4 µg/mL
  MIC of ceftibuten (CTB): 0.25 µg/mL
K. pneumoniae 11/23 LF#2; with inhibitor at 2 μg/mL
  MIC of cefalexin (LEX): 0.5 µg/mL
  MIC of cefdinir (CDR): 0.5 µg/mL
  MIC of cefixime (CFM): 2 µg/mL
  MIC of ceftibuten (CTB): 0.25 µg/mL
K. pneumoniae 11/23 LF#2; with inhibitor at 4 μg/mL
  MIC of cefalexin (LEX): 0.25 µg/mL
  MIC of cefdinir (CDR): 0.25 µg/mL
  MIC of cefixime (CFM): 1 µg/mL
  MIC of ceftibuten (CTB): 0.125 µg/mL
E. coli ESBL 2; with inhibitor at 1 μg/mL
  MIC of cefalexin (LEX): 0.5 µg/mL
  MIC of cefdinir (CDR): 0.5 µg/mL
  MIC of cefixime (CFM): 0.25 µg/mL
  MIC of ceftibuten (CTB): 0.125 µg/mL
E. coli ESBL 2; with inhibitor at 2 μg/mL
  MIC of cefalexin (LEX): 0.5 µg/mL
  MIC of cefdinir (CDR): 0.5 µg/mL
  MIC of cefixime (CFM): 0.25 µg/mL
  MIC of ceftibuten (CTB): 0.125 µg/mL
E. coli ESBL 2; with inhibitor at 4 μg/mL
  MIC of cefalexin (LEX): 0.25 µg/mL
  MIC of cefdinir (CDR): 0.25 µg/mL
  MIC of cefixime (CFM): 0.125 µg/mL
  MIC of ceftibuten (CTB): 0.125 µg/mL
